Results published in ChEMBL document CHEMBL1201862, “PubChem BioAssay data set” (2004).
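In this assay, cells in 96-well plates receive the compound at five concentrations for 48 hours. Endpoints are linearly interpolated between the surrounding concentrations. At the GI50, growth is halved.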 Activity calls are given as the source filed them. Rule as the data show it: active = GI50 up to about 1.1 µM and inactive = higher.

Assays:
Assay in all cases: NCI-60 cell line screen, 48 h
RPMI-8226 = system: RPMI-8226
UACC-257 = system: UACC-257
NCI-H522 = system: NCI-H522
PC-3 = system: PC-3
COLO 205 = system: COLO 205
SK-MEL-2 = system: SK-MEL-2
SN12C = system: SN12C
SNB-19 = system: SNB-19
SNB-75 = system: SNB-75
HCT-116 = system: HCT-116
CCRF-CEM = system: CCRF-CEM
ACHN = system: ACHN
HOP-92 = system: HOP-92
LOX IMVI = system: LOX IMVI
SK-MEL-5 = system: SK-MEL-5
NCI-H460 = system: NCI-H460
Malme-3M = system: Malme-3M
SF-268 = system: SF-268
SF-295 = system: SF-295
OVCAR-3 = system: OVCAR-3

SMILES | GI50 (RPMI-8226) | GI50 (UACC-257) | GI50 (NCI-H522) | GI50 (PC-3) | GI50 (COLO 205) | GI50 (SK-MEL-2) | GI50 (SN12C) | GI50 (SNB-19) | GI50 (SNB-75) | GI50 (HCT-116) | GI50 (CCRF-CEM) | GI50 (ACHN) | GI50 (HOP-92) | GI50 (LOX IMVI) | GI50 (SK-MEL-5) | GI50 (NCI-H460) | GI50 (Malme-3M) | GI50 (SF-268) | GI50 (SF-295) | GI50 (OVCAR-3)
COc1cc(/C=C2\C[C@H]3[C@@H]4CC=C5C[C@@H](OC(C)=O)CC[C@]5(C)[C@H]4CC[C@]3(C)\C2=N\O)cc(OC)c1OC | 0.56 µM (active) | 5.74 µM (inactive) | 4.85 µM (inactive) | 2.54 µM (inactive) | 3.76 µM (inactive) | 7.01 µM (inactive) | 6.37 µM (inactive) | 29.9 µM (inactive) | 2.5 µM (inactive) | 4.53 µM (inactive) | 4.08 µM (inactive) | 3.75 µM (inactive) | 2.59 µM (inactive) | 4.32 µM (inactive) | 3.61 µM (inactive) | 4.08 µM (inactive) | 8.95 µM (inactive) | 7.82 µM (inactive) | 3.21 µM (inactive) | 6.27 µM (inactive)
Nc1ncn([C@H]2C[C@H](O)[C@@H](CO)O2)c(=O)n1 [DECITABINE] | 54.7 µM (inactive) | 34.9 µM (inactive) | 36.7 µM (inactive) | 9.57 µM (inactive) | 37.7 µM (inactive) | 38.1 µM (inactive) | 83.8 µM (inactive) | 138 µM (inactive) | 82.8 µM (inactive) | 48.9 µM (inactive) | 4.59 µM (inactive) | 21.5 µM (inactive) | 175 µM (inactive) | 99.5 µM (inactive) | 74.6 µM (inactive) | 6.59 µM (inactive) | 127 µM (inactive) | 119 µM (inactive) | 102 µM (inactive) | 76.6 µM (inactive)
CCCCCOc1ccc(NC2=C(Cl)C(=O)c3c(O)ccc(O)c3C2=O)cc1 | 2.43 µM (inactive) | 6.15 µM (inactive) | 2.55 µM (inactive) | 5.25 µM (inactive) | 2.63 µM (inactive) | > 10 µM (inactive) | 2.96 µM (inactive) | 7.87 µM (inactive) | > 10 µM (inactive) | 2.88 µM (inactive) | 3.52 µM (inactive) | > 10 µM (inactive) | 6.85 µM (inactive) | 1.79 µM (inactive) | 5.43 µM (inactive) | 4.13 µM (inactive) | 2.49 µM (inactive) | > 10 µM (inactive) | > 10 µM (inactive) | 4.2 µM (inactive)
C=C(C[C@@H](O)[C@H](C)NC(=O)OCc1ccccc1)C(=O)OC(C)(C)C | 29.8 µM (inactive) | 32.1 µM (inactive) | 38.6 µM (inactive) | > 100 µM (inactive) | > 100 µM (inactive) | > 100 µM (inactive) | > 100 µM (inactive) | > 100 µM (inactive) | 79.8 µM (inactive) | > 100 µM (inactive) | 17.3 µM (inactive) | > 100 µM (inactive) | > 100 µM (inactive) | 53.8 µM (inactive) | 26.1 µM (inactive) | > 100 µM (inactive) | > 100 µM (inactive) | > 100 µM (inactive) | 89.1 µM (inactive) | 78.2 µM (inactive)
Nc1nc(Cl)c(N)c(NC23CC4CC(CC(C4)C2)C3)n1 | 2.25 µM (inactive) | 2.36 µM (inactive) | 1.92 µM (inactive) | 1.36 µM (inactive) | 1.58 µM (inactive) | 0.147 µM (active) | 1.82 µM (inactive) | 1.63 µM (inactive) | 2.1 µM (inactive) | 1.58 µM (inactive) | 1.62 µM (inactive) | 1.78 µM (inactive) | 3.89 µM (inactive) | 3.87 µM (inactive) | 1.72 µM (inactive) | 3.07 µM (inactive) | 3.16 µM (inactive) | 2.57 µM (inactive) | 2.78 µM (inactive) | 1.64 µM (inactive)
NC1c2c(Br)sc(N3CCCC3)c2C(=O)C1O (configuration not stated) |  | > 50 µM (inactive) | > 50 µM (inactive) | > 50 µM (inactive) | > 50 µM (inactive) | > 50 µM (inactive) | > 50 µM (inactive) | > 50 µM (inactive) | > 50 µM (inactive) | > 50 µM (inactive) | > 50 µM (inactive) | > 50 µM (inactive) | 26.2 µM (inactive) | > 50 µM (inactive) | > 50 µM (inactive) | > 50 µM (inactive) | > 50 µM (inactive) | > 50 µM (inactive) | > 50 µM (inactive) | > 50 µM (inactive)
Clc1cccc(N/N=N/c2ccc(-c3nc4ccccc4s3)cc2)c1 | 58.7 µM (inactive) | > 100 µM (inactive) | 24.2 µM (inactive) | 41.6 µM (inactive) | > 100 µM (inactive) | 21.2 µM (inactive) | 21.9 µM (inactive) | 86.1 µM (inactive) | 30.3 µM (inactive) | 32.7 µM (inactive) | 21 µM (inactive) | > 100 µM (inactive) | 20.4 µM (inactive) | 53 µM (inactive) | 25.4 µM (inactive) | 50.9 µM (inactive) | 26.6 µM (inactive) |  | > 100 µM (inactive) | 51.5 µM (inactive)
Nc1nc(Cl)cc(NC2(CO)CCC2)n1 | > 100 µM (inactive) | > 100 µM (inactive) | > 100 µM (inactive) | > 100 µM (inactive) | > 100 µM (inactive) | > 100 µM (inactive) | > 100 µM (inactive) |  | > 100 µM (inactive) | > 100 µM (inactive) | > 100 µM (inactive) | > 100 µM (inactive) | > 100 µM (inactive) | > 100 µM (inactive) | > 100 µM (inactive) | > 100 µM (inactive) | > 100 µM (inactive) | > 100 µM (inactive) | > 100 µM (inactive) | > 100 µM (inactive)
O=C(/C=C/c1ccc(Cl)cc1)Oc1ccc(C=C2CCC/C(=C\c3ccc(OC(=O)/C=C/c4ccc(Cl)cc4)cc3)C2=O)cc1 | > 45.9 µM (inactive) | > 100 µM (inactive) | > 100 µM (inactive) | > 100 µM (inactive) | > 100 µM (inactive) | > 100 µM (inactive) | > 100 µM (inactive) | > 100 µM (inactive) | > 79.1 µM (inactive) | > 100 µM (inactive) |  | > 100 µM (inactive) | > 100 µM (inactive) | > 100 µM (inactive) | > 100 µM (inactive) | > 100 µM (inactive) | > 100 µM (inactive) | > 100 µM (inactive) | > 100 µM (inactive) | > 100 µM (inactive)
CC(=O)OC[C@@]12Cc3ccc(C)c(O)c3[C@]1(C)[C@@H](OC(C)=O)[C@]1(O)[C@H]([C@@H](OC(=O)c3ccccc3)[C@@H](C)[C@H]1OC(C)=O)[C@H]2OC(C)=O |  | > 50 µM (inactive) | > 50 µM (inactive) | > 50 µM (inactive) | > 50 µM (inactive) | > 50 µM (inactive) | > 50 µM (inactive) | > 50 µM (inactive) | 16.4 µM (inactive) | > 50 µM (inactive) | > 50 µM (inactive) | > 50 µM (inactive) | > 50 µM (inactive) | > 50 µM (inactive) | > 50 µM (inactive) | > 50 µM (inactive) |  | > 50 µM (inactive) | > 50 µM (inactive) | > 50 µM (inactive)
O=C(CSCC(=O)N/N=C/c1ccncc1)N/N=C/c1ccncc1 | > 100 µM (inactive) | > 100 µM (inactive) | > 100 µM (inactive) | > 100 µM (inactive) |  | > 100 µM (inactive) | > 100 µM (inactive) | > 100 µM (inactive) | > 100 µM (inactive) | > 100 µM (inactive) | > 100 µM (inactive) | > 100 µM (inactive) | > 100 µM (inactive) | > 100 µM (inactive) | > 100 µM (inactive) | > 100 µM (inactive) | > 100 µM (inactive) | > 100 µM (inactive) | > 100 µM (inactive) | > 100 µM (inactive)
CC(=O)Nc1c(S(=O)(=O)c2ccccc2)c(C)c(C)n1CCN(C)C | > 100 µM (inactive) | > 100 µM (inactive) | > 100 µM (inactive) | > 100 µM (inactive) | > 100 µM (inactive) | > 100 µM (inactive) | > 100 µM (inactive) | > 100 µM (inactive) | > 100 µM (inactive) | > 100 µM (inactive) | > 100 µM (inactive) | > 100 µM (inactive) | > 100 µM (inactive) |  | > 100 µM (inactive) | > 100 µM (inactive) | > 100 µM (inactive) | > 100 µM (inactive) | > 100 µM (inactive) | > 100 µM (inactive)
CC(=O)OC1CC[C@@]2(C)C(=CC[C@@H]3[C@@H]2CC[C@]2(C)C(OC(C)=O)[C@H](n4ccnc4)C[C@@H]32)C1 (some centres not stated) | 17.3 µM (inactive) | 17.3 µM (inactive) | 14.4 µM (inactive) | 16.2 µM (inactive) | 18.5 µM (inactive) | 16.8 µM (inactive) | 56 µM (inactive) | 62.8 µM (inactive) | 54.7 µM (inactive) | 14.9 µM (inactive) | 11.7 µM (inactive) | 40.3 µM (inactive) | 97.5 µM (inactive) | 18.7 µM (inactive) | 16.3 µM (inactive) | 17.4 µM (inactive) | 14.6 µM (inactive) | 41.5 µM (inactive) | 31.7 µM (inactive) | 
Cn1c(=N)n[n+]([O-])c2ccccc21 |  | 1.94 µM (inactive) | 2.86 µM (inactive) | 6.28 µM (inactive) | 2.33 µM (inactive) | 3.47 µM (inactive) | 2.13 µM (inactive) |  | 3.78 µM (inactive) | 4.14 µM (inactive) | 4.24 µM (inactive) | 5.48 µM (inactive) | 23.7 µM (inactive) | 2.59 µM (inactive) | 1.59 µM (inactive) |  | 2.34 µM (inactive) |  | 3.54 µM (inactive) | 1.55 µM (inactive)
